Experimental data as given in article PMC7915902, “Preclinical Evaluation of [^18F]FACH in Healthy Mice and Piglets: An ^18F-Labeled Ligand for Imaging of Monocarboxylate Transporters with PET” (International Journal of Molecular Sciences, 2021).

Key:
[1] = test system: MCTs; assay: Dynamic PET/MRI in mice with pre-treatment; format: in vivo, mouse; conditions: mice, PET
Experimental: The biodistribution of [^18F]FACH in mice was assessed by small animal PET (Nanoscan, Mediso, Budapest, Hungary) with dynamic 60 min emission recordings, followed by T1 weighted GRE MR (TR = 15.0 ms, TE = 2.4 ms, FA = 25°) imaging for anatomical correlations and attenuation correction. The mice (n = 20) weighing 32.2 ± 2.9 g were anaesthetised with 2% isoflurane in 60% oxygen, and placed on a thermostatically heated animal bed. The animals then received i.v. injections of 0.9% saline (control), reference compound (10 mg/kg), or α-CCA-Na (25 mg/kg) ten min prior or 20 min after (displacement studies) [^18F]FACH administration (2.3–8.6 MBq, 0.5–11.2 nmol/kg). List mode PET data were binned as a series of attenuation-corrected sinogram frames (12 × 10 s, 6 × 30 s, 5 × 60 s and 10 × 300 s) and were reconstructed by Ordered Subset Expectation Maximization (OSEM3D) with four iterations, six subsets and a voxel size of 0.4 mm³ (Nucline v2.01, Mediso).
(§1) The analysis of reconstructed datasets was performed with PMOD software (v4.103, PMOD Technologies LLC, Zurich, Switzerland).
(§2) Data are shown in mean ± standard deviation (SD). Group differences were tested by Student’s t-test, with p < 0.05 designated as significant. Area Under the Curves (AUCs) and corresponding 95% confidence intervals (CI95%s) were calculated with GraphPad Prism (v.8.2) following the assumptions described by Gagnon et al..

[2] = test system: MCTs; format: in vivo, piglet; conditions: pig, in vivo
Experimental: The piglets (n = 6) were inititally anaesthetised with intramuscular injections of stresnil and ursotamin, and anaesthesia was maintained with intravenous ursotamin and midazolam, as required. The hematocrit was measured in an ear vein blood sample collected just prior to imaging. Either saline (n = 3) or 25 mg/kg α-CCA-Na (n = 3) in saline was administrated ten min before i.v. administration of [^18F]FACH (261–327 MBq, corresponding to 218–852 pmol/kg) via an ear vein. Imaging was performed with a simultaneous hybrid PET/MR system (mMR Biograph; Siemens, Erlangen, Germany) equipped with dedicated phased-array surface. PET data were reconstructed into a 128 × 128 matrix (voxel size: 1.40 × 1.40 × 2.03 mm^3) using the built-in OSEM3D algorithm with eight iterations, 21 subsets, and a 3-mm Gaussian filter. The attenuation and decay corrected dynamic sequence consisted of 32 frames as follows: 1 × 15, 11 × 30, 1 × 45, 5 × 60, 1 × 90, 5 × 120, 1 × 180, 4 × 240, 1 × 300, 2 × 360 s, whereas activity concentrations in VOIs are represented in units of SUV or percentage of injected dose (%/ID). After completing the dynamic PET recording, piglets were euthanized with an i.v. overdose of T61 (Intervet Deutschland GmbH, Unterschleißheim, Germany) and tissues were sampled for radio-metabolism studies in selected animals.
as §1, §2

[3] = test system: plasma protein; assay: Plasma protein binding ex vivo (ultrafiltration); format: in vitro ADME; conditions: mouse plasma, 70 min after i.v. injection
Experimental: To measure plasma protein binding in vitro, a 1 mL portion of piglet plasma was incubated with 4.9 MBq [^18F]FACH (10 µL) on a shaker (400 rpm) for 20 min at 37 °C. The plasma protein binding was also measured ex vivo in 10 µL portions of mouse plasma from retro-orbital blood samples collected 70 min after intravenous (i.v.) injection of 3.7 MBq [^18F]FACH via a tail vein. The free and bound fractions of [^18F]FACH were separated by centrifugation at room temperature (2000 g for ten minutes, Centrifree® YM-30, Ultrafiltration Device; Merck KGaA, Darmstadt, Germany). Radioactivity was measured in aliquots of ultrafiltrate and in prefiltration plasma samples, using a Wizard 2470 γ-counter (PerkinElmer LAS, Rodgau, Germany), and the free fraction in the plasma (fp) calculated from the concentration ratio.

[4] = test system: MCT1; design: method as in PMID 31017677; conditions: L-[14C]lactate uptake, rat brain endothelial cells; read-out: IC50 towards MCT1; cited from earlier work
[5] = target: MCTs; assay: Autoradiographic saturation binding (homologous displacement) in mouse kidney cryosections
Experimental: Cryosections from the mouse kidney (10 µm) were cut on a microtome (Microm HM560, Thermo Scientific Microm, Fisher Scientific GmbH, Schwerte, Germany), mounted on glass slides (SuperFrost, Thermo Scientific Menzel, Fisher Scientific GmbH), dried for two hours at room temperature, and stored at −25 °C. Before the binding experiment, the tissue slices were dried under a stream of cold air, pre-incubated with PBS (pH 7.4) for 15 min at room temperature and dried again before incubation with PBS containing [^18F]FACH (1.2 nM) without (total binding) and with different concentrations of FACH-Na (10 µM–0.1 nM; homologous competition) for 60 min. Specific binding to MCTs of [^18F]FACH in cryosections of mouse kidney was determined after co-incubation of 1 nM [^18F]FACH with vehicle or 300 nM α-CCa-Na or 300 nM reference compound (homologous competition).
The incubation was terminated by washing with ice-cold buffer (50 mM TRIS-HCl, pH 7.4) twice for two minutes followed by dipping in ice-cold demineralized water for 5 s and drying under a stream of cold air. The dried sections along with activity standards (1 µL aliquots of different dilutions of the incubation solution dried on microscopic slides) were exposed to phosphor imaging plates (FujiFilm Co., Tokyo, Japan) transferred after 120 min to a phosphor imager (HD-CR 35 Bio; Dürr NDT GmbH & Co. KG, Bietigheim-Bissingen, Germany). Regions of interest (ROIs) were drawn manually or automatically on the tissue slices or standard spots, and the pixelwise results converted to Bq/mg wet weight. Non-linear regression analysis was performed with GraphPad Prism (v.3.0 GraphPad Software, San Diego, CA, USA). KD and Bmax values were calculated by the simplified Cheng and Prusoff equation (http://www3.uah.es/farmamol/Public/GraphPad/radiolig.htm, accessed on 5 February 2021):(1) KD=Ki=IC50−Radioligand (M) (2) Bmax=Top−Bottom/Radioligand (M)/(KD+Radioligand (M))

Compound: CCCN(CCC[18F])c1ccc(/C=C(\C#N)C(=O)O)c(OC)c1 [[^18F]FACH, (E)-2-cyano-3-{4-[(3-[^18F]fluoropropyl)(propyl)amino]-2-methoxyphenyl}acrylic acid]
- peak TAC SUV whole blood ([1]; left heart ventricle VOI, all three treatment groups): 6.8 ± 1.3
- AUC0–60 min gall bladder ([1]; vehicle pre-treatment): 481 SUV min
- AUC0–60 min kidney cortex ([1]; vehicle pre-treatment): 290 SUV min
- AUC0–60 min liver ([1]; vehicle pre-treatment): 450 SUV min
- AUC0–60 min small intestine ([1]; vehicle pre-treatment): 99 SUV min
- AUC0–60 min whole blood ([1]; vehicle pre-treatment): 59 SUV min
- peak TAC SUV kidney cortex [2]: 15.3 ± 2.5
- peak TAC SUV kidney medulla [2]: 66.1 ± 27.7
- peak TAC SUV liver [2]: 13.2 ± 2.7
- free plasma fraction (fp) [3]: 0.07
- IC50 [4]: 11 nM
- Kd ([5]; mouse kidney cortex (Co) cryosections): 118 ± 12 nM
- Kd ([5]; mouse kidney inner medulla (IM) cryosections): 265 nM
- Kd ([5]; mouse kidney outer medulla (OM) cryosections): 212 nM
